Assay results taken from the supplement of paper PMC10307832.

Legend:
Experiment in all cases: relative viability (nuclei count vs DMSO), 5 days (fraction); higher = more cells survive
Neratinib + Trametinib = compound: CCOc1cc2ncc(C#N)c(Nc3ccc(OCc4ccccn4)c(Cl)c3)c2cc1NC(=O)/C=C/CN(C)C [Neratinib] + CC(=O)Nc1cccc(-n2c(=O)n(C3CC3)c(=O)c3c(Nc4ccc(I)cc4F)n(C)c(=O)c(C)c32)c1 [Trametinib] (partner 0.02 µM)
Summary of the method: (§1)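 The day after seeding in 1536-well plates, lung cancer cell lines were treated by pin tool with a single drug, or with a fixed anchor-drug dose together with five library-drug doses (not always all listed) in √10 steps. After 5 days, a combined fix-and-stain solution (final 0.05% Triton X-100, 1% formaldehyde, 1 ug/ml Hoechst) was added. Nuclei counted on 4× images gave relative viability as treated counts over vehicle counts, reported as the median of duplicate plates.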

Neratinib + Lapatinib = compound: CCOc1cc2ncc(C#N)c(Nc3ccc(OCc4ccccn4)c(Cl)c3)c2cc1NC(=O)/C=C/CN(C)C [Neratinib] + CS(=O)(=O)CCNCc1ccc(-c2ccc3ncnc(Nc4ccc(OCc5cccc(F)c5)c(Cl)c4)c3c2)o1 [Lapatinib] (partner 2 µM)
Summary of the method: as §1

Neratinib + Olaparib = compound: CCOc1cc2ncc(C#N)c(Nc3ccc(OCc4ccccn4)c(Cl)c3)c2cc1NC(=O)/C=C/CN(C)C [Neratinib] + O=C(c1cc(Cc2n[nH]c(=O)c3ccccc23)ccc1F)N1CCN(C(=O)C2CC2)CC1 [Olaparib] (partner 8 µM)
Summary of the method: as §1

Neratinib + Phenformin = compound: CCOc1cc2ncc(C#N)c(Nc3ccc(OCc4ccccn4)c(Cl)c3)c2cc1NC(=O)/C=C/CN(C)C [Neratinib] + N=C(N)NC(=N)NCCc1ccccc1 [Phenformin] (partner 250 µM)
Summary of the method: as §1

| Cell Line | relative viability (Neratinib + Trametinib; first compound 0.01 µM) | relative viability (Neratinib + Trametinib; first compound 0.03162 µM) | relative viability (Neratinib + Trametinib; first compound 0.1 µM) | relative viability (Neratinib + Trametinib; first compound 0.3162 µM) | relative viability (Neratinib + Trametinib; first compound 1 µM) | relative viability (Neratinib + Lapatinib; first compound 0.01 µM) | relative viability (Neratinib + Lapatinib; first compound 0.03162 µM) | relative viability (Neratinib + Lapatinib; first compound 0.1 µM) | relative viability (Neratinib + Lapatinib; first compound 0.3162 µM) | relative viability (Neratinib + Lapatinib; first compound 1 µM) | relative viability (Neratinib + Olaparib; first compound 0.01 µM) | relative viability (Neratinib + Olaparib; first compound 0.1 µM) | relative viability (Neratinib + Olaparib; first compound 0.3162 µM) | relative viability (Neratinib + Olaparib; first compound 1 µM) | relative viability (Neratinib + Phenformin; first compound 0.03162 µM) | relative viability (Neratinib + Phenformin; first compound 0.1 µM) | relative viability (Neratinib + Phenformin; first compound 0.3162 µM) | relative viability (Neratinib + Phenformin; first compound 1 µM) | relative viability (Neratinib + Olaparib; first compound 0.03162 µM) | relative viability (Neratinib + Phenformin; first compound 0.01 µM) |
| --- | --- | --- | --- | --- | --- | --- | --- | --- | --- | --- | --- | --- | --- | --- | --- | --- | --- | --- | --- | --- |
| LC-2-ad | 0.98 | 0.933 | 0.805 | 0.845 | 0.85 | 0.993 | 0.974 | 0.783 | 1.06 | 0.978 | 0.777 | 0.651 | 0.756 | 0.785 | 0.578 | 0.557 | 0.421 | 0.45 |  |  |
| NCI-H1793 | 0.454 | 0.509 | 0.407 | 0.361 | 0.253 | 0.693 | 0.646 | 0.576 | 0.75 | 0.642 | 1 | 0.551 | 0.345 | 0.217 | 0.516 | 0.281 | 0.273 | 0.255 | 0.855 | 0.392 |
| HCC-827 | 0.426 | 0.545 | 0.561 | 0.226 | 0.153 | 0.223 | 0.229 | 0.17 | 0.174 | 0.165 | 0.624 | 0.665 | 0.272 | 0.107 | 0.411 | 0.403 | 0.23 | 0.151 | 0.763 | 0.42 |
| HCC-78 | 0.901 | 0.668 | 0.678 | 0.731 | 0.296 | 0.89 | 1.09 | 0.788 | 0.952 | 0.398 | 0.996 | 0.817 | 0.798 | 0.396 | 0.731 | 0.624 | 0.545 | 0.296 | 0.87 | 0.724 |
| NCI-H2087 | 0.19 | 0.173 | 0.15 | 0.194 | 0.16 | 1.02 | 0.995 |  | 0.989 | 0.894 | 0.622 | 0.643 | 0.424 | 0.255 | 0.567 | 0.391 | 0.415 | 0.234 | 0.496 | 0.493 |
| SK-LU-1 | 0.517 | 0.58 | 0.457 | 0.442 | 0.344 | 0.921 | 0.904 | 0.809 | 0.74 | 0.507 | 0.486 | 0.413 | 0.432 | 0.314 | 0.515 | 0.521 | 0.381 | 0.25 | 0.549 | 0.584 |
| NCI-H2342 | 0.772 | 0.772 | 0.71 | 0.667 | 0.543 |  |  |  |  |  | 0.397 | 0.385 | 0.331 | 0.298 | 0.688 | 0.517 | 0.351 | 0.403 | 0.416 | 0.662 |
| A-427 | 0.835 | 0.85 | 0.807 | 0.637 | 0.337 | 1.08 | 1.12 | 0.972 | 1 | 0.998 | 0.826 | 0.56 | 0.71 | 0.553 | 0.313 | 0.32 | 0.281 | 0.268 | 0.883 | 0.427 |
| H3255 | 0.619 | 0.602 | 0.426 | 0.241 | 0.236 | 0.257 | 0.333 | 0.273 | 0.229 | 0.176 | 0.58 | 0.463 | 0.264 | 0.214 | 0.28 | 0.242 | 0.222 | 0.246 | 0.571 | 0.311 |
| ABC-1 |  |  |  |  |  | 1.44 | 1.15 | 1.21 | 1.05 | 0.629 | 0.835 | 0.946 | 0.631 | 0.489 | 0.236 | 0.285 | 0.231 | 0.215 | 0.979 | 0.211 |
| ChaGo-K-1 | 0.886 | 0.941 | 0.754 | 0.882 | 0.845 |  |  |  |  |  | 0.412 | 0.331 | 0.392 | 0.401 | 0.518 | 0.482 | 0.432 | 0.401 | 0.469 | 0.466 |
| EBC-1 |  |  |  |  |  | 0.205 | 0.192 | 0.199 | 0.233 | 0.211 | 0.774 | 0.669 | 0.695 | 0.544 |  |  |  |  | 0.668 |  |
| A549 |  |  |  |  |  | 1.09 | 0.968 | 0.907 |  | 0.558 | 0.356 | 0.276 | 0.296 | 0.176 | 0.189 |  | 0.137 | 0.191 | 0.555 | 0.162 |
| NCI-H1648 | 0.449 | 0.402 | 0.276 | 0.262 | 0.335 |  |  |  |  |  | 0.855 | 0.806 | 0.643 | 0.427 |  |  |  |  | 0.917 |  |
| NCI-H1703 |  |  |  |  |  | 1.05 | 1.29 | 0.924 | 0.79 | 0.244 | 0.536 | 0.402 | 0.218 | 0.162 |  |  |  |  | 0.486 |  |
| LCLC-103H | 0.739 | 0.733 | 0.618 | 0.681 | 0.639 |  |  |  |  |  | 0.63 | 0.705 | 0.726 | 0.642 | 0.344 | 0.34 | 0.293 | 0.293 | 0.85 | 0.353 |
| NCI-H1563 |  |  |  |  |  | 0.921 | 0.975 | 0.889 | 1.57 | 0.843 |  |  |  |  | 0.643 | 0.568 | 0.628 | 0.409 |  | 0.727 |
